# Source: patent US11992697B2, “X-ray psoralen activated cancer therapy (X-PACT)” (IMMUNOLIGHT, LLC, priority 2015, dated 2024)
# What was measured:
# KP158B (sarcoma) = experiment: UV light activated psoralen, Cell-Titer-Glo Luminescence Cell Viability Assay (FIG. 3A); type: cell-based, murine; details: psoralen 40 μM; UV light 0, 0.25, 0.5, 1.0 J/cm^2
# Procedure: (§1) Metabolic cell viability was also assessed visually using Methylene blue staining and ATP-induced Luminescence imaging (Cell-Titer-Glo® Luminescence Cell Viability Assay). The luminescence imaging permitted investigation of the cytotoxicity of psoralen activated directly with a UV lamp, and in the absence of phosphors and x-ray radiation.
# (§2) N=4 for each cell line at each UV light condition (0, 0.25, 0.5, 1.0 J/cm^2). The psoralen concentration was 40 μM.
# 4T1 = experiment: as above; type: cell-based, murine; details: psoralen 40 μM; UV light 0, 0.25, 0.5, 1.0 J/cm^2
# Procedure: as §1, §2
# 4T1-HER2 cells = experiment: In-vitro X-PACT Annexin V (+) signal by Guava flow cytometry (FIGS. 2B, 4, 5); type: cell-based, murine; details: component alone; 36 independent irradiation experiments, 1 Gy at 80 kVp
# Procedure: Guava Annexin V flow cell cytometry was used to quantify cytotoxicity in 3 murine tumor cell lines (breast-4T1, glioma-CT2A, and sarcoma KP15B8). In-vitro X-PACT studies were conducted on cells prepared in the following manner. Cells were incubated in appropriate growing media and buffers before being trypsinized and plated evenly onto twelve (12) well plates for 24 hours. About 20 minutes prior to X-PACT irradiation, the wells of each plate were exposed to the following combinations of additives: (1) control—cells only with no additives, (2) UVADEX only, (3) phosphors only, (4) UVADEX+phosphors. Each plate had twelve (12) wells with three wells for each of the four treatment arms. […]
# Two primary flow cytometry metrics were used to evaluate the X-PACT treatments, both determined at 48h after X-PACT treatment. […] The first metric is metabolically viable cell count (or cell viability) determined from the number of whole cells per well as determined using forward scattering (FSC). […] (All wells on a given plate receive the same dose.) The second metric is Annexin V (+) signal, which is the fraction of the metabolically viable cells which expressed a positive Annexin V signal as determined by flow cell cytometry, and include any cells advancing toward early or late apoptotic cell death. […]
# [1] = test system: syngeneic 4T1-HER2 tumors; experiment: In-vivo X-PACT trial, tumor growth (FIG. 6); parameters: species or system BALB/c mice; details: 5 μM psoralen (AMT) or 100 μg phosphor with x-ray; compared with expectation from in-vitro data
# Procedure: An in-vivo trial was conducted for preliminary evaluation of X-PACT administered to syngeneic 4T1-HER2 tumors grown on BALB/c mice. There were 4 arms of the trial: (1) saline only (control), (2) phosphors alone with x-ray, (3) psoralen (AMT) alone with x-ray, and (4) full X-PACT treatment including both phosphor and psoralen and x-ray irradiation. X-PACT treatments were given in 3 fractions per week, to a total of 6 fractions. In arms 2-3 a consistent x-ray irradiation technique was used (about 1.2 Gy delivered at 75 kVp by 30 mA in 3 minutes) with 100 μg of phosphor, and 5 μM psoralen (AMT) (with μM representing micromolar). 0.5 Million tumor cells were injected per mouse. There were 6-8 mice per arm, and the study was repeated a second time, yielding effective sample sizes of 12-16.
# In this evaluation, X-PACT treatment was applied to BALBC mice with syngeneic 4T1-HER2 tumors. In the separate psoralen and phosphor control arms (blue and red respectively), 5 μM psoralen (AMT) and 100 μg of phosphor where applied. A consistent x-ray irradiation technique was used for all arms (except saline control) which was 2 Gy delivered at 75 kVp by 30 mA in 3 minutes.
# [2] = test system: CT2A (murine malignant glioma); experiment: UV light activated psoralen, Cell-Titer-Glo Luminescence Cell Viability Assay (FIG. 3A); type: cell-based; details: psoralen 40 μM; UV light 0, 0.25, 0.5, 1.0 J/cm^2
# Procedure: as §1, §2
smiles,measurement,setting,value
O=c1ccc2cc3ccoc3cc2o1 [psoralen],effect of UV light activated psoralen on viable cells,KP158B (sarcoma),reduce viable cells
same,effect of UV light activated psoralen on viable cells,4T1,reduce viable cells
same,"effect on cytotoxicity (Annexin V signal), multi-variable regression",4T1-HER2 cells,neither psoralen nor phosphor alone had a strong effect
same,component effect on tumor growth (single-component arm with x-ray),[1],slightly higher component effect
same,effect of UV light activated psoralen on viable cells,[2],reduce viable cells
